Our source for the IC50 and inhibition values is patent publication US8765748B2, “Indazolyl, benzimidazolyl, benzotriazolyl substituted indolinone derivatives as kinase inhibitors useful in the treatment of cancer” (University Health Network, priority 2007, dated 2014).

Molecules are shown by their SMILES.

Holding throughout (type): biochemical
One test concerns the target T1, PLK1 (Homo sapiens, UniProt P53350).
T1 construct: purchased Invitrogen PV3501
As to the kind of experiment: PLK1 Inhibition Assay (Z-Lyte). The following applies: for IC50: 25 μM ATP, 8 nM PLK1, read-out: PLK1 IC50 Ranges; for inhibition at 10 µM: 10 μM compound, read-out: PLK1 relative inhibition percentage at a dose of 10 μM. The method, then: PLK1 inhibition was determined using the Z-Lyte assay kit from Invitrogen (cat #PV3802). […] The % inhibition values were determined according to the manufacturer's directions and IC50 values were obtained using a non-linear 4 point logistic curve fit (XLfit4, IDBS)

The next test addresses T2, Aurora B (Homo sapiens, UniProt Q96GD4).
T2 construct: purchased Invitrogen PV3970
As to the kind of experiment: Aurora B Inhibition Assay (Z-Lyte). To be noted: for IC50: 128 μM ATP, 28 nM Aurora B, read-out: Aurora B IC50 Ranges. The protocol: Aurora B inhibition was determined using the Z-Lyte assay kit from Invitrogen. The assay was performed using the recommended manufacturer's instructions with 128 μM ATP and 28 nM Aurora B (Invitrogen cat #PV3970). The % inhibition values were determined according to the manufacturer's directions and IC50 values were obtained using a non-linear 4 point logistic curve fit (XLfit4, IDBS)

A further test has as its target T3, Aurora A (Homo sapiens, UniProt O14965).
T3 construct: purchased Invitrogen PV3612
T3 sequence (O14965 1-403): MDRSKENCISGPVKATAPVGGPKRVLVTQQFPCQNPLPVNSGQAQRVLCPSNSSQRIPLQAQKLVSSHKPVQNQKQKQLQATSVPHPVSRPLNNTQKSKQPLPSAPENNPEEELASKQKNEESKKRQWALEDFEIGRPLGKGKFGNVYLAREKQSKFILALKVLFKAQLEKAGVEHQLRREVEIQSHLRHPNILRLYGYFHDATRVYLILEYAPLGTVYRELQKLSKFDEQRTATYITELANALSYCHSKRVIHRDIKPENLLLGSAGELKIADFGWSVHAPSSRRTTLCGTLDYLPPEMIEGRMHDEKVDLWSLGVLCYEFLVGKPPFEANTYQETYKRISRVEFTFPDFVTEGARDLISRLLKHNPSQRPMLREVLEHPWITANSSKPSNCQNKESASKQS
As to the kind of experiment: Aurora A Inhibition Assay (Z-Lyte). To be noted: for IC50: 20 μM ATP, 12 nM Aurora A, read-out: Aurora A IC50 Ranges; for inhibition at 10 µM: 10 μM compound, read-out: Aurora A relative inhibition percentage at a dose of 10 μM. The method, then: Aurora A inhibition was determined using the Z-Lyte assay kit from Invitrogen. The assay was performed using the recommended manufacturer's instructions with 20 μM ATP and 12 nM Aurora A (Invitrogen cat #PV3612). The % inhibition values were determined according to the manufacturer's directions and IC50 values were obtained using a non-linear 4 point logistic curve fit (XLfit4, IDBS)

A further test deals with T4, human PLK4 (Homo sapiens, UniProt O00444).
T4 construct: amino terminal GST fusion of residues 1-391 of human PLK4; made in house; host or cells: E. coli
T4 sequence (O00444 1-391): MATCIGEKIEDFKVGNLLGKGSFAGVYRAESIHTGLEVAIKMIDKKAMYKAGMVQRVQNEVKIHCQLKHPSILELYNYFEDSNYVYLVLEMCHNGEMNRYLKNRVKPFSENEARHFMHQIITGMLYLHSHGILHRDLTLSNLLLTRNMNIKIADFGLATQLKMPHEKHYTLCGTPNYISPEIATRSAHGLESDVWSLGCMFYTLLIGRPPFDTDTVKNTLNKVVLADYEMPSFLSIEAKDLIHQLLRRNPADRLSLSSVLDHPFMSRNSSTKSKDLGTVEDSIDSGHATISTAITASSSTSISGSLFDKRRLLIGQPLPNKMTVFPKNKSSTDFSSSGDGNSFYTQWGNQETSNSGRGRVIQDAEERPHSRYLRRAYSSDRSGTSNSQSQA
As to the kind of experiment: PLK4 Inhibition Assay (indirect ELISA). The following applies: 15 μM ATP, 4 nM GST-PLK4; read-out: PLK4 IC50 Ranges. In a few lines:
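Dephosphorylated (lambda phosphatase) GST-PLK4 activity read by indirect ELISA. Compounds were pre-incubated with enzyme for 15 minutes before ATP was added. IC50 came from a non-linear 4-point logistic fit.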

The target of the next test is T5, PLK2 (Homo sapiens, UniProt Q9NYY3).
T5 construct: purchased Invitrogen PV4204
T5 sequence (Q9NYY3 whole entry): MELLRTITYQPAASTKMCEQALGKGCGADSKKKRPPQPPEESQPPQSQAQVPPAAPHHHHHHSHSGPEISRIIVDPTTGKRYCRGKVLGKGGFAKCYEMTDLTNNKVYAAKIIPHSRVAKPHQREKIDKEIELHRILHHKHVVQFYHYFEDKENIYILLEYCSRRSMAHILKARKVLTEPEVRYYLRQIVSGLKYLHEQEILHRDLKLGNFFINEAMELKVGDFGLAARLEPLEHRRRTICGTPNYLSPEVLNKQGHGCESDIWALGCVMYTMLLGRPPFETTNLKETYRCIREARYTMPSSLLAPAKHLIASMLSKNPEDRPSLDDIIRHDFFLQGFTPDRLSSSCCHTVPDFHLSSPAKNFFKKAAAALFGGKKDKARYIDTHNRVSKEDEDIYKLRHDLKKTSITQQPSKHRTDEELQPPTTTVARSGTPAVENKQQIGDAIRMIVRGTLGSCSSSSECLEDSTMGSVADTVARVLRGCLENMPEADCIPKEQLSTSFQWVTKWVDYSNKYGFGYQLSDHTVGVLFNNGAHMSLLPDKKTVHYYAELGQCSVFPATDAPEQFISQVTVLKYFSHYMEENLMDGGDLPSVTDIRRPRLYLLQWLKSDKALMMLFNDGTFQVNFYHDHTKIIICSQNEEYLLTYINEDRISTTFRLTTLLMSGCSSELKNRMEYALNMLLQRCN
As to the kind of experiment: PLK2 Inhibition Assay (Z-Lyte). To be noted: for IC50: 60 μM ATP, 133 nM PLK2, read-out: PLK2 IC50 Ranges; for inhibition at 10 µM: 10 μM compound, read-out: PLK2 relative inhibition percentage at a dose of 10 μM. The method, then:
PLK2 inhibition was determined using the Z-Lyte assay kit from Invitrogen (cat #PV3802). The assay was performed using the recommended manufacturer's instructions with 60 μM ATP and 133 nM PLK2 (Invitrogen cat #PV4204). The % inhibition values were determined according to the manufacturer's directions and IC50 values were obtained using a non-linear 4 point logistic curve fit (XLfit4, IDBS)

T1 sequence (P53350 whole entry): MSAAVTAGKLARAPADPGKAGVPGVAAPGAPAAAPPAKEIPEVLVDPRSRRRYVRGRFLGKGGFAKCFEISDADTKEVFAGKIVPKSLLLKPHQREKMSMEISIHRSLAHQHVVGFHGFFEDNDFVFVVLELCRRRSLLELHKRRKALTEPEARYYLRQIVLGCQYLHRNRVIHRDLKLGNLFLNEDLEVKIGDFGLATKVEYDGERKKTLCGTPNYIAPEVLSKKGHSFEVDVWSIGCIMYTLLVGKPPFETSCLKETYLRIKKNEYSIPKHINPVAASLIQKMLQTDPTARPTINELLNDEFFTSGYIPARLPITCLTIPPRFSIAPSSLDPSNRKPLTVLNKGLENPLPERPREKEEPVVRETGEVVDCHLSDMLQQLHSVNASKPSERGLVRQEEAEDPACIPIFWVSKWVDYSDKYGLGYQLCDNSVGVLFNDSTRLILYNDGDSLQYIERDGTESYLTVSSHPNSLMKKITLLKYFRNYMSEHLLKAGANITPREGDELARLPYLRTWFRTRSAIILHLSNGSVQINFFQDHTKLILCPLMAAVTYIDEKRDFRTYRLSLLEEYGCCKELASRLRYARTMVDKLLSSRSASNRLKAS
T2 sequence (Q96GD4 whole entry): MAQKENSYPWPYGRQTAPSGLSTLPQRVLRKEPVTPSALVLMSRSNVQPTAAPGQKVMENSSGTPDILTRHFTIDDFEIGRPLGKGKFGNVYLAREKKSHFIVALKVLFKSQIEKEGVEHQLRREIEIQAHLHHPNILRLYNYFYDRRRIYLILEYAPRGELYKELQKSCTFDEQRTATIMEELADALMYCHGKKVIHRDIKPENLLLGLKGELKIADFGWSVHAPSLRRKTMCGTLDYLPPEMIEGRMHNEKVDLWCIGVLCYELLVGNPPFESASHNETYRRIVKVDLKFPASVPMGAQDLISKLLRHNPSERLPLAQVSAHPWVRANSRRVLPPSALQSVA

Take `Nc1cccc2c1NC(=O)/C2=C/c1ccc2cn[nH]c2c1` [Example A56, (E)-3-((1H-indazol-6-yl)methylene)-7-aminoindolin-2-one]: the IC50 at PLK1 was above 50 µM; at Aurora B, below 5 µM; at Aurora A it was below 5 µM; at human PLK4, below 5 µM; at PLK2, below 5 µM.
Consider `COc1ccc2c(c1)C(=Cc1ccc3c(/C=C/c4ccccn4)n[nH]c3c1)C(=O)N2` (mixture of isomers) [Example A87, (E and Z)-5-methoxy-3-((3-((E)-2-(pyridin-2-yl)vinyl)-1H-indazol-6-yl)methylene)indolin-2-one], for which the inhibition at 10 µM at PLK1 was below 50%; at Aurora A it was above 50%; on PLK2, below 50%. The IC50 at Aurora B and at human PLK4 was below 5 µM in each case.
Consider `O=C1Nc2c(Cl)cccc2/C1=C\c1ccc2cn[nH]c2c1` [Example A43, (E)-3-((1H-indazol-6-yl)methylene)-7-chloroindolin-2-one], for which the IC50 at PLK1 is above 50 µM; on Aurora B it was below 5 µM; at Aurora A it was 5 to 50 µM; at human PLK4, below 5 µM. For the same molecule, the inhibition at 10 µM on PLK2 was above 50%.
On to `O=C1Nc2c(cccc2C(F)(F)F)C1=Cc1ccc2cn[nH]c2c1` (mixture of isomers) [Example A47, (E and Z)-3-((1H-indazol-6-yl)methylene)-7-(trifluoromethyl)indolin-2-one], for which the IC50 was above 50 µM on PLK1; 5 to 50 µM on Aurora B; above 50 µM on Aurora A; above 50 µM at human PLK4; above 50 µM on PLK2.
Take `COC(=O)/C=C/c1n[nH]c2cc(/C=C3/C(=O)Nc4ccccc43)ccc12` [Example A61, (E)-methyl 3-(6-((E)-(2-oxoindolin-3-ylidene)methyl)-1H-indazol-3-yl)acrylate]: the inhibition at 10 µM at PLK1 and on PLK2 was below 50% each time. For the same molecule, the IC50 on Aurora B, at Aurora A and on human PLK4 was below 5 µM throughout.
For the molecule `CC(C)(C)OC(=O)Nc1ccc2c(c1)NC(=O)/C2=C/c1ccc2cn[nH]c2c1` [Example A37, (E)-tert-butyl 3-((1H-indazol-6-yl)methylene)-2-oxoindolin-6-ylcarbamate], the IC50 is above 50 µM at PLK1, below 5 µM at Aurora B, 5 to 50 µM at human PLK4 and above 50 µM at PLK2. At Aurora A, the inhibition at 10 µM is below 50%.
Regarding `O=C1Nc2ccc(Br)cc2/C1=C\c1ccc2cn[nH]c2c1` [Example A35, (E)-3-((1H-indazol-6-yl)methylene)-5-bromoindolin-2-one], the IC50 is above 50 µM on PLK1, below 5 µM at Aurora B and below 5 µM at human PLK4. Besides, the inhibition at 10 µM at Aurora A and at PLK2 was below 50% throughout.
`O=C1Nc2cc(Cl)ccc2/C1=C\c1ccc2cn[nH]c2c1` [Example A36, (E)-3-((1H-indazol-6-yl)methylene)-6-chloroindolin-2-one]: the half-maximal inhibitory concentration (IC50) at PLK1 was 5 to 50 µM; on Aurora B, below 5 µM; at Aurora A, above 50 µM; at human PLK4, below 5 µM. Moreover, the inhibition at 10 µM at PLK2 was below 50%.
With `COc1ccc2c(c1)/C(=C\c1ccc3c(/C=C/c4ccncc4Cl)n[nH]c3c1)C(=O)N2` [Example A119, (E)-3-((3-((E)-2-(3-chloropyridin-4-yl)vinyl)-1H-indazol-6-yl)methyl-ene)-5-methoxyindolin-2-one], the inhibition at 10 µM on PLK1 and on PLK2 was below 50% in each case. Also, the IC50 on Aurora B, on Aurora A and on human PLK4 was below 5 µM throughout.
For `CN1CCN(C(=O)c2cccc(/C=C/c3n[nH]c4cc(C=C5C(=O)Nc6ccccc65)ccc34)c2)CC1` (mixture of isomers) [Example A107, (E and Z)-3-((3-((E)-3-(4-methylpiperazine-1-carbonyl)styryl)-1H-indazol-6-yl)methylene)indolin-2-one 2,2,2-trifluoroacetate], the inhibition at 10 µM on PLK1 was above 50%; at PLK2 it was below 50%. Besides, the IC50 at Aurora B, on Aurora A and at human PLK4 was below 5 µM throughout.
Consider `O=C1Nc2c(F)cccc2/C1=C\c1ccc2cn[nH]c2c1` [Example A42, (E)-3-((1H-indazol-6-yl)methylene)-7-fluoroindolin-2-one], for which the IC50 is above 50 µM at PLK1, below 5 µM on Aurora B, below 5 µM at Aurora A and below 5 µM at human PLK4. For the same molecule, the inhibition at 10 µM on PLK2 was above 50%.
As for `O=C1Nc2ncccc2/C1=C\c1ccc2c(/C=C/c3ccncc3)n[nH]c2c1` [Example A101, (E)-3-((3-((E)-2-(pyridin-4-yl)vinyl)-1H-indazol-6-yl)methylene)-1H-pyrrolo[2,3-b]pyridin-2(3H)-one], the inhibition at 10 µM is below 50% on PLK1, above 50% on Aurora A and below 50% on PLK2. Further, the IC50 at Aurora B and on human PLK4 was below 5 µM each time.
Regarding `O=C1Nc2ccccc2C1=Cc1ccc2c(-c3ccc[nH]3)n[nH]c2c1` (mixture of isomers) [Example A89, (E and Z)-3-((3-(1H-pyrrol-2-yl)-1H-indazol-6-yl)methylene)indolin-2-one], the inhibition at 10 µM at PLK1 and on PLK2 was below 50% throughout. Moreover, the IC50 at Aurora B, on Aurora A and at human PLK4 was below 5 µM throughout.
`CCOC(=O)/C=C/c1n[nH]c2cc(C=C3C(=O)Nc4ncccc43)ccc12` (mixture of isomers) [Example A110, (E and Z)-ethyl 3-(6-((E)-(2-oxo-1H-pyrrolo[2,3-b]pyridin-3(2H-ylidene)methyl)-1H-indazol-3-yl)acrylate]: the inhibition at 10 µM on PLK1 and at PLK2 was below 50% throughout. Moreover, the IC50 at Aurora B, at Aurora A and at human PLK4 was below 5 µM in each case.
As to `Cc1ccc2c(c1)/C(=C\c1ccc3c(/C=C/c4ccncc4)n[nH]c3c1)C(=O)N2` [Example A85, (E)-5-methyl-3-((3-((E)-2-(pyridin-4-yl)vinyl)-1H-indazol-6-yl)methylene)indolin-2-one], the inhibition at 10 µM at PLK1 and at PLK2 was below 50% each time. Also, the IC50 on Aurora B, on Aurora A and on human PLK4 was below 5 µM in each case.
For the molecule `O=C1Nc2ncc(Br)cc2C1=Cc1ccc2cn[nH]c2c1` (racemic) [Example A69, (E and Z)-3-((1H-indazol-6-yl)methylene)-5-bromo-1H-pyrrolo[2,3-b]pyridin-2(3H)-one], the inhibition at 10 µM at PLK1 is above 50%; on Aurora B (10 μM compound, read-out: Aurora B relative inhibition percentage at a dose of 10 μM) it was above 50%; at Aurora A, above 50%; at PLK2, above 50%. The IC50 at human PLK4 is below 5 µM.
